# pIC50: −log10 of the molar value.
# Assays:
# Test in all cases: Growth inhibitory activity of compounds on BaF3 cell lines stably transfected with kinase (MTS, 48 h)
# Assay type in all cases: cell-based
# [1] = target: T1, various mutants of kinase EGFR (BaF3 cell lines stably transfected with kinase) (Homo sapiens, UniProt P00533); details: BaF3 cell line stably transfected with EGFR Δ19Del, read-out: Δ19Del growth inhibitory activity IC50
# T1 construct: other: BaF3 cells stably transfected with EGFR Δ19Del; MTS, 48 h; other: BaF3 cell line stably transfected with EGFR Δ19Del
# Method in brief: (§1)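 Growth is measured by MTS reduction (OD 490 nm) after 48 h compound exposure at up to 10 µM in 8 steps of 1/3. Inhibition is calculated against a 0.1% DMSO control and cell-free blank, and IC50 is derived from it.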
# [2] = target: T2, various mutants of kinase EGFR (BaF3 cell lines stably transfected with kinase) (Homo sapiens, UniProt P00533, C797S/L858R/T790M); details: BaF3 cell line stably transfected with EGFR L858R/T790M/C797S, read-out: L858R/T790M/ C797S growth inhibitory activity IC50
# T2 construct: expressed in transfected cells; host or cells: BaF3
# Method in brief: as §1
# [3] = target: T3, various mutants of kinase EGFR (BaF3 cell lines stably transfected with kinase) (Homo sapiens, UniProt P00533, L858R); details: BaF3 cell line stably transfected with EGFR L858R, read-out: L858R growth inhibitory activity IC50
# T3 construct: expressed in transfected cells; host or cells: BaF3
# Method in brief: as §1
# [4] = target: T4, various mutants of kinase EGFR (BaF3 cell lines stably transfected with kinase) (Homo sapiens, UniProt P00533, L858R/T790M); details: BaF3 cell line stably transfected with EGFR L858R/T790M, read-out: L858R/ T790M growth inhibitory activity IC50
# T4 construct: expressed in transfected cells; host or cells: BaF3
# Method in brief: as §1
# [5] = target: T5, various mutants of kinase EGFR (BaF3 cell lines stably transfected with kinase) (Homo sapiens, UniProt P00533, T790M/C797S, form not given); details: BaF3 cell line stably transfected with EGFR Δ19Del/T790M/C797S, read-out: Δ19Del/T790M/ C797S growth inhibitory activity IC50
# T5 construct: other: BaF3 cells stably transfected with EGFR Δ19Del/T790M/C797S; MTS, 48; other: BaF3 cell line stably transfected with EGFR Δ19Del/T790M/C7
# Method in brief: as §1
# [6] = target: T6, various mutants of kinase EGFR (BaF3 cell lines stably transfected with kinase) (Homo sapiens, UniProt P00533, T790M, form not given); details: BaF3 cell line stably transfected with EGFR Δ19Del/T790M, read-out: Δ19Del/ T790M growth inhibitory activity IC50
# T6 construct: other: BaF3 cells stably transfected with EGFR Δ19Del/T790M; MTS, 48 h; other: BaF3 cell line stably transfected with EGFR Δ19Del/T790M; MTS, 48
# Method in brief: as §1
# T5 sequence (P00533 with tags, fused parts or gaps DEL746-750/T790M/C797S, form open): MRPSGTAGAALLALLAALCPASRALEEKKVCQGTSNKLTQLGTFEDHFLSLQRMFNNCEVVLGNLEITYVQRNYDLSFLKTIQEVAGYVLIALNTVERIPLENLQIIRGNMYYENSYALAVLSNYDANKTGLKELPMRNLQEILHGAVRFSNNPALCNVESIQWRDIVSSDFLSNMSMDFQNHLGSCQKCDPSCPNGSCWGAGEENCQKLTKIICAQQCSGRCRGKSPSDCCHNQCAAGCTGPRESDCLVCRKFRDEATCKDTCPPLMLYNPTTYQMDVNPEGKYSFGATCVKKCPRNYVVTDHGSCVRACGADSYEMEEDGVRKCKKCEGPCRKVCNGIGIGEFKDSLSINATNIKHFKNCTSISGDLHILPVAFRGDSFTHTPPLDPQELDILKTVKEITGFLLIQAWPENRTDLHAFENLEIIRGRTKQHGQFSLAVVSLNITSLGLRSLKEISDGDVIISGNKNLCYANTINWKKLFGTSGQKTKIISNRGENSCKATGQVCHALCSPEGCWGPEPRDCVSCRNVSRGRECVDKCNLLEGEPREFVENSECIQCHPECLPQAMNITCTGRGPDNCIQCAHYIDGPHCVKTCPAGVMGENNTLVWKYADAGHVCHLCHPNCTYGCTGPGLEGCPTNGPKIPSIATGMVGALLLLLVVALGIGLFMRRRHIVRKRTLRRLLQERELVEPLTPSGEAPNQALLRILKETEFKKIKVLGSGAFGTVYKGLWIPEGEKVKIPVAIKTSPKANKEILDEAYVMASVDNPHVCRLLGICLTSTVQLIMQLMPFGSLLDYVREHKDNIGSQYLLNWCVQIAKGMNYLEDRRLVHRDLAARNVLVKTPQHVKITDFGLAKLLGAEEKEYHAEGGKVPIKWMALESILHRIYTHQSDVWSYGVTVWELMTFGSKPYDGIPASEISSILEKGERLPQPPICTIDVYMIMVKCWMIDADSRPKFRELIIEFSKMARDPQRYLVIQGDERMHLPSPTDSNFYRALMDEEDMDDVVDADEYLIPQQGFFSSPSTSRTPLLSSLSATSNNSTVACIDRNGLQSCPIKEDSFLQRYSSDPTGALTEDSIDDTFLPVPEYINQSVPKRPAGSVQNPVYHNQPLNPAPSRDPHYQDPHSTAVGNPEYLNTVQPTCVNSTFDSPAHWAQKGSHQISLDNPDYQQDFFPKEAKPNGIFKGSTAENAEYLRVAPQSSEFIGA
# T3 sequence (P00533 25-1210 L858R): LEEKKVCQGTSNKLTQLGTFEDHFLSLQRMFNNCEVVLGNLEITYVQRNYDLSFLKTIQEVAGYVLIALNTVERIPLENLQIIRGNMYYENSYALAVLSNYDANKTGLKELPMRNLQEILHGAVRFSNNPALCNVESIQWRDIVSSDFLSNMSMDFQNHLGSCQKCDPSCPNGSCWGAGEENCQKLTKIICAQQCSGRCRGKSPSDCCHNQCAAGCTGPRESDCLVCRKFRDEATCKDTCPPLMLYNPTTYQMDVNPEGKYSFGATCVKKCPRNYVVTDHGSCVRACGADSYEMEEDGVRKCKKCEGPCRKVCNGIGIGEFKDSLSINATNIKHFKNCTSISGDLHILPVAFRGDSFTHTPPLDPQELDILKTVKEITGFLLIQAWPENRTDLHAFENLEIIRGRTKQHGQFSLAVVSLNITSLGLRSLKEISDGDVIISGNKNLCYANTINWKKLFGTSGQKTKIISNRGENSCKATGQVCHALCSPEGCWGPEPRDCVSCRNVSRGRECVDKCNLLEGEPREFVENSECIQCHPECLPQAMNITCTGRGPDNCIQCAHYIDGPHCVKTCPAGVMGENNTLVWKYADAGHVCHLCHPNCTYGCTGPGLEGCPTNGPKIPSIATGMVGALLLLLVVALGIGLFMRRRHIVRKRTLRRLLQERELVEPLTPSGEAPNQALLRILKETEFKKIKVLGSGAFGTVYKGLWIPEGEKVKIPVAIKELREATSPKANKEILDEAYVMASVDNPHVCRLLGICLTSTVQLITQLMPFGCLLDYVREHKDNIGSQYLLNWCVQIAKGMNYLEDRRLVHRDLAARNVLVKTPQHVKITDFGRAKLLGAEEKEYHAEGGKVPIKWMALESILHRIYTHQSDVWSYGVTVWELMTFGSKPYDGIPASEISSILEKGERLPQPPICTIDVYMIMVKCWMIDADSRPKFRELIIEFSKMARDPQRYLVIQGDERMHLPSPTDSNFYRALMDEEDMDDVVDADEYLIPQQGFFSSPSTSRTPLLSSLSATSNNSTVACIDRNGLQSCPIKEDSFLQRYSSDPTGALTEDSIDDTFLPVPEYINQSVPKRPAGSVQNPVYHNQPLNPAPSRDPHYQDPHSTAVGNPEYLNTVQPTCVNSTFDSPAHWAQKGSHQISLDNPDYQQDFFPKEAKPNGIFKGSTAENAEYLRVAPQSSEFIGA
# T1 sequence (P00533 with tags, fused parts or gaps DEL746-750): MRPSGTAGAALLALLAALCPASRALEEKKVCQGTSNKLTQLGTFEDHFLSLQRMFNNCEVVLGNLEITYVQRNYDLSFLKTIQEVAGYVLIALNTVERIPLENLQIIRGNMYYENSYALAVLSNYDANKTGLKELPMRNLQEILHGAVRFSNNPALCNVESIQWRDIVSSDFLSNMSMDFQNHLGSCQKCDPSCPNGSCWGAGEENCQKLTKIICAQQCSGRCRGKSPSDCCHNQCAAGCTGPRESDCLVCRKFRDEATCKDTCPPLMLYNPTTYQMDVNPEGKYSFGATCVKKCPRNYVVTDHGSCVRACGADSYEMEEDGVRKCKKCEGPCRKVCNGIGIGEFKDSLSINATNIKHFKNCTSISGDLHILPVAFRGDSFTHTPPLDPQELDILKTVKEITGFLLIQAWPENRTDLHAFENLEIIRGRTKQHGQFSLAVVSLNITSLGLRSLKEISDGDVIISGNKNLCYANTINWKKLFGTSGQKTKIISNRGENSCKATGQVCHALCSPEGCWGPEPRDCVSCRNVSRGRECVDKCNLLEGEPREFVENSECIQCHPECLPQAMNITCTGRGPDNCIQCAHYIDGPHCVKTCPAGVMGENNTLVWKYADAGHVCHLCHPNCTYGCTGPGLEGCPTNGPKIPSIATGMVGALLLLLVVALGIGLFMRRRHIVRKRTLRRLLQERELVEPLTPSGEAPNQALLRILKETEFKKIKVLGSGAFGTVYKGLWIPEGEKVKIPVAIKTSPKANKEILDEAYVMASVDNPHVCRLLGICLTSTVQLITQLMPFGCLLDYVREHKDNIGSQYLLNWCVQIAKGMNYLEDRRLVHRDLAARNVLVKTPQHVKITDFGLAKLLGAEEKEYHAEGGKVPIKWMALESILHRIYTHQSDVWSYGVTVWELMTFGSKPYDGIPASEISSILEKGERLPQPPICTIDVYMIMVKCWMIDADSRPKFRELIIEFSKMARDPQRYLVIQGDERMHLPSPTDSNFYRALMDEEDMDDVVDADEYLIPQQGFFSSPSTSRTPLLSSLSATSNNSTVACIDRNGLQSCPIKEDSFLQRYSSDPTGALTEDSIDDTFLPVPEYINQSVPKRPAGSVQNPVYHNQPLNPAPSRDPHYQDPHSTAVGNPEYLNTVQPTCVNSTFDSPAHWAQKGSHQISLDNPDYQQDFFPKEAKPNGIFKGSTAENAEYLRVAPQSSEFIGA
# T4 sequence (P00533 25-1210 T790M/L858R): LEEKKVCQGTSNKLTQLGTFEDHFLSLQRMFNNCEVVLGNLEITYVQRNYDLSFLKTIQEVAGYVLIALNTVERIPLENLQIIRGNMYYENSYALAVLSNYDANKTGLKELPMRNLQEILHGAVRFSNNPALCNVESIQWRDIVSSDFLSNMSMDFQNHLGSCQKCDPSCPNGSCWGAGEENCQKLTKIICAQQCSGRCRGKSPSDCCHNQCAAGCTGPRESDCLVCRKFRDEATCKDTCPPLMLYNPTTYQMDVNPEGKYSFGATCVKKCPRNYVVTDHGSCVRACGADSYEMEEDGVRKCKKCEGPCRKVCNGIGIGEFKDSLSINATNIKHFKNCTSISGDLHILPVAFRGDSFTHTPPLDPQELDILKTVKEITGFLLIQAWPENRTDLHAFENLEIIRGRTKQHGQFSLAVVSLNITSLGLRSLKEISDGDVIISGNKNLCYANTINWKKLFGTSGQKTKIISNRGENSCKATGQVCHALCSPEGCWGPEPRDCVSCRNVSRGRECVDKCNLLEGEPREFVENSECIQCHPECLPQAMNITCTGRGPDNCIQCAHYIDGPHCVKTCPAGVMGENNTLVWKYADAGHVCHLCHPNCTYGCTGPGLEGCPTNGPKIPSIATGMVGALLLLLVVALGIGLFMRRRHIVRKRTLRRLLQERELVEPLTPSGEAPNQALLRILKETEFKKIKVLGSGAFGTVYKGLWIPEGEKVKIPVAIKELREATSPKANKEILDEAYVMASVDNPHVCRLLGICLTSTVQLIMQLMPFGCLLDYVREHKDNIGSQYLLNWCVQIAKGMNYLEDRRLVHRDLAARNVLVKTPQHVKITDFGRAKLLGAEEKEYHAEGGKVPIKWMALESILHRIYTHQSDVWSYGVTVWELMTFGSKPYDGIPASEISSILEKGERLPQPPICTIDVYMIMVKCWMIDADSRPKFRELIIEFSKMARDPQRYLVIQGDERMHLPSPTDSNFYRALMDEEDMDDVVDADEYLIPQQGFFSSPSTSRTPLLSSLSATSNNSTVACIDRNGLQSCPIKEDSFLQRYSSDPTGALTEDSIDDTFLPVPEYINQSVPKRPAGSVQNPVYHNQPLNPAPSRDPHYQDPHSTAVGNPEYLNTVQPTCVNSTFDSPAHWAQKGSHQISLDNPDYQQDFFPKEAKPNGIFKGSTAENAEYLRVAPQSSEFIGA
SMILES,pIC50 [1],pIC50 [2],pIC50 [3],pIC50 [4],pIC50 [5],pIC50 [6]
CCc1cc(Nc2ncc(Br)c(Nc3ccc4nccnc4c3N(C)S(C)(=O)=O)n2)c(OC)cc1N1CCC(N2CCN(C)CC2)CC1 [Compound I-396],6.30 to 7.30,≥ 7.30,6.30 to 7.30,6.30 to 7.30,≥ 7.30,6.30 to 7.30
CCc1cc(Nc2ncc(Br)c(Nc3ccc4nccnc4c3N(C)S(C)(=O)=O)n2)c(OC)cc1N1CCN(C2CN(C)C2)CC1 [Compound I-398],≥ 7.30,≥ 7.30,≥ 7.30,≥ 7.30,≥ 7.30,≥ 7.30
CCc1cc(Nc2ncc(Br)c(Nc3ccc4nccnc4c3N(C)S(C)(=O)=O)n2)c(OC)cc1N1CCC2(CC1)CC(N(C)C)C2 [Compound I-399],6.30 to 7.30,≥ 7.30,6.30 to 7.30,6.30 to 7.30,≥ 7.30,6.30 to 7.30
COc1cc(N2CCC(N3CCN(C)CC3)CC2)ccc1Nc1ncc(Br)c(Nc2ccc3nccnc3c2NS(C)(=O)=O)n1 [Compound I-401],6.30 to 7.30,6.30 to 7.30,6.30 to 7.30,≥ 7.30,6.30 to 7.30,6.30 to 7.30
COc1cc(N2CCC(N3CCN(C)CC3)CC2)c(C)cc1Nc1ncc(Br)c(Nc2ccc3nccnc3c2NS(C)(=O)=O)n1 [Compound I-402],≥ 7.30,≥ 7.30,6.30 to 7.30,≥ 7.30,≥ 7.30,≥ 7.30
CCc1cc(Nc2ncc(Br)c(Nc3ccc4nccnc4c3NS(C)(=O)=O)n2)c(OC)cc1N1CCC(N2CCN(C)CC2)CC1 [Compound I-403],≥ 7.30,≥ 7.30,≥ 7.30,≥ 7.30,≥ 7.30,≥ 7.30
CCc1cc(Nc2ncc(Br)c(Nc3ccc4nccnc4c3NS(C)(=O)=O)n2)c(OC)nc1N1CCC(N2CCN(C)CC2)CC1 [Compound I-404],6.30 to 7.30,≥ 7.30,≥ 7.30,≥ 7.30,≥ 7.30,≥ 7.30
CCc1cc(Nc2ncc(Br)c(Nc3ccc4nccnc4c3NS(C)(=O)=O)n2)c(OC(F)(F)F)cc1N1CCC(N2CCN(C)CC2)CC1 [Compound I-405],6.30 to 7.30,6.30 to 7.30,6.30 to 7.30,6.30 to 7.30,6.30 to 7.30,≥ 7.30
COc1cc(N2CCC(N3CCN(C)CC3)CC2)c(C(C)C)cc1Nc1ncc(Br)c(Nc2ccc3nccnc3c2NS(C)(=O)=O)n1 [Compound I-406],6.30 to 7.30,6.30 to 7.30,6.30 to 7.30,6.30 to 7.30,6.30 to 7.30,6.30 to 7.30
COc1cc(N2CCC(N3CCN(C)CC3)CC2)c(C2CC2)cc1Nc1ncc(Br)c(Nc2ccc3nccnc3c2NS(C)(=O)=O)n1 [Compound I-407],≥ 7.30,≥ 7.30,≥ 7.30,≥ 7.30,≥ 7.30,≥ 7.30
COc1cc(N2CCC(N3CCN(C)CC3)CC2)c(CC2CC2)cc1Nc1ncc(Br)c(Nc2ccc3nccnc3c2NS(C)(=O)=O)n1 [Compound I-408],6.30 to 7.30,≥ 7.30,≥ 7.30,≥ 7.30,≥ 7.30,≥ 7.30
CCc1cc(Nc2ncc(Br)c(Nc3ccc4nccnc4c3NS(C)(=O)=O)n2)ccc1N1CCC(N2CCN(C)CC2)CC1 [Compound I-409],≥ 7.30,≥ 7.30,≥ 7.30,≥ 7.30,≥ 7.30,≥ 7.30
CCc1cc(Nc2ncc(Br)c(Nc3ccc4nccnc4c3NS(C)(=O)=O)n2)c(OC)cc1N1CCC(N(C)C)CC1 [Compound I-410],≥ 7.30,≥ 7.30,≥ 7.30,≥ 7.30,≥ 7.30,≥ 7.30
CCc1cc(Nc2ncc(Br)c(Nc3ccc4nccnc4c3NS(C)(=O)=O)n2)c(OC)cc1N1CCN(C)CC1 [Compound I-411],≥ 7.30,≥ 7.30,≥ 7.30,≥ 7.30,≥ 7.30,≥ 7.30

# Source: US20230310428A1, “EGFR INHIBITOR AND PREPARATION METHOD AND USE THEREOF” (HONGYUN BIOTECH CO., LTD., priority 2020, published 2023)
